ChEMBL document CHEMBL3885861, “Open TG-GATES”

Organism: Rattus norvegicus
Assay: Open TG-GATES - Regimen: Daily Repeat
Format: toxicity, organism-based, Sprague-Dawley
Set-up: regimen Daily Repeat, gender Male, age 6 weeks
Details: in vivo, po, 10 mg/kg, route gavage, dose level Middle; for APTT / Bas / Eos / Fbg / Hb / Ht / Lym / MCH / MCHC / MCV / Mono / Neu / PT / Plat / RBC / Ret / WBC: tissue Blood; for KIDNEY_L / KIDNEY_R / KIDNEY_TOTAL: tissue Kidney; for LIVER: tissue Liver; for A/G / ALP / ALT / AST / BUN / CRE / Ca / Cl / DBIL / GLC / IP / K / LDH / Na / PL / RALB / TBIL / TC / TG / TP / gamma-GTP: tissue Plasma

C=CCO [ALLYL ALCOHOL]
TERMINAL_BW (72 h, time 3 day): 233.1 g | APTT (72 h, time 3 day): 20.8 s | Bas (72 h, time 3 day): 0% | Eos (72 h, time 3 day): 0.6% | Fbg (72 h, time 3 day): 233.2 mg/dL | Hb (72 h, time 3 day): 13.9 g/dL | Ht (72 h, time 3 day): 40.8% | Lym (72 h, time 3 day): 77.4% | MCH (72 h, time 3 day): 20.6 pg | MCHC (72 h, time 3 day): 33.9% | MCV (72 h, time 3 day): 60.7 fL | Mono (72 h, time 3 day): 3.6% | Neu (72 h, time 3 day): 17.8% | PT (72 h, time 3 day): 11.7 s | Plat (72 h, time 3 day): 133.2 x10_4/uL | RBC (72 h, time 3 day): 672.8 x10_4/ul | Ret (72 h, time 3 day): 5.1% | WBC (72 h, time 3 day): 116 x10_2/uL | KIDNEY_L (72 h, time 3 day): 1 g | KIDNEY_R (72 h, time 3 day): 1 g | KIDNEY_TOTAL (72 h, time 3 day): 2.1 g | LIVER (72 h, time 3 day): 11.2 g | A/G (72 h, time 3 day): 1.6 | ALP (72 h, time 3 day): 921.4 IU/L | ALT (72 h, time 3 day): 35.2 IU/L | AST (72 h, time 3 day): 67.6 IU/L | BUN (72 h, time 3 day): 14 mg/dL | CRE (72 h, time 3 day): 0.4 mg/dL | Ca (72 h, time 3 day): 10.7 mg/dL | Cl (72 h, time 3 day): 103 meq/L | DBIL (72 h, time 3 day): 0.066 mg/dL | GLC (72 h, time 3 day): 207.8 mg/dL | IP (72 h, time 3 day): 6.6 mg/dL | K (72 h, time 3 day): 3.9 meq/L | LDH (72 h, time 3 day): 226 IU/L | Na (72 h, time 3 day): 140.2 meq/L | PL (72 h, time 3 day): 142 mg/dL | RALB (72 h, time 3 day): 3.3 g/dL | TBIL (72 h, time 3 day): 0.1 mg/dL | TC (72 h, time 3 day): 78 mg/dL | TG (72 h, time 3 day): 78 mg/dL | TP (72 h, time 3 day): 5.3 g/dL | gamma-GTP (72 h, time 3 day): 1 IU/L | TERMINAL_BW ([…], time 7 day): 267.6 g | TERMINAL_BW ([…], time 14 day): 329.3 g | TERMINAL_BW ([…], time 28 day): 403.7 g | APTT ([…], time 7 day): 18.2 s | Bas ([…], time 7 day): 0% | Eos ([…], time 7 day): 0.8% | Fbg ([…], time 7 day): 219 mg/dL | Hb ([…], time 7 day): 13.5 g/dL | Ht ([…], time 7 day): 39.7% | Lym ([…], time 7 day): 82.6% | MCH ([…], time 7 day): 20.5 pg | MCHC ([…], time 7 day): 34% | MCV ([…], time 7 day): 60.2 fL | Mono ([…], time 7 day): 2.6% | Neu ([…], time 7 day): 13.4% | PT ([…], time 7 day): 12 s | Plat ([…], time 7 day): 137.3 x10_4/uL | RBC ([…], time 7 day): 661 x10_4/ul | Ret ([…], time 7 day): 4.5% | WBC ([…], time 7 day): 128.8 x10_2/uL | APTT ([…], time 14 day): 19.2 s | Bas ([…], time 14 day): 0% | Eos ([…], time 14 day): 1% | Fbg ([…], time 14 day): 225.8 mg/dL | Hb ([…], time 14 day): 14.3 g/dL | Ht ([…], time 14 day): 41.2% | Lym ([…], time 14 day): 77.8% | MCH ([…], time 14 day): 20.4 pg | MCHC ([…], time 14 day): 34.7% | MCV ([…], time 14 day): 58.8 fL | Mono ([…], time 14 day): 3% | Neu ([…], time 14 day): 17.8% | PT ([…], time 14 day): 11.8 s | Plat ([…], time 14 day): 134 x10_4/uL | RBC ([…], time 14 day): 700.4 x10_4/ul | Ret ([…], time 14 day): 4.5% | WBC ([…], time 14 day): 123.8 x10_2/uL | APTT ([…], time 28 day): 20 s | Bas ([…], time 28 day): 0% | Eos ([…], time 28 day): 1% | Fbg ([…], time 28 day): 225.2 mg/dL | Hb ([…], time 28 day): 15.2 g/dL | Ht ([…], time 28 day): 44% | Lym ([…], time 28 day): 80.8% | MCH ([…], time 28 day): 19.6 pg | MCHC ([…], time 28 day): 34.5% | MCV ([…], time 28 day): 57 fL | Mono ([…], time 28 day): 1.6% | Neu ([…], time 28 day): 15.6% | PT ([…], time 28 day): 12 s | Plat ([…], time 28 day): 108.6 x10_4/uL | RBC ([…], time 28 day): 772.6 x10_4/ul | Ret ([…], time 28 day): 3% | WBC ([…], time 28 day): 116.6 x10_2/uL | KIDNEY_L ([…], time 7 day): 1.1 g | KIDNEY_R ([…], time 7 day): 1.1 g | KIDNEY_TOTAL ([…], time 7 day): 2.2 g | KIDNEY_L ([…], time 14 day): 1.3 g | KIDNEY_R ([…], time 14 day): 1.3 g | KIDNEY_TOTAL ([…], time 14 day): 2.6 g | KIDNEY_L ([…], time 28 day): 1.4 g | KIDNEY_R ([…], time 28 day): 1.4 g | KIDNEY_TOTAL ([…], time 28 day): 2.8 g | LIVER ([…], time 7 day): 12.3 g | LIVER ([…], time 14 day): 15 g | LIVER ([…], time 28 day): 17.1 g | A/G ([…], time 7 day): 1.5 | ALP ([…], time 7 day): 970.4 IU/L | ALT ([…], time 7 day): 36 IU/L | AST ([…], time 7 day): 66 IU/L | BUN ([…], time 7 day): 14.4 mg/dL | CRE ([…], time 7 day): 0.4 mg/dL | Ca ([…], time 7 day): 10.8 mg/dL | Cl ([…], time 7 day): 102.2 meq/L | DBIL ([…], time 7 day): 0.06 mg/dL | GLC ([…], time 7 day): 202.6 mg/dL | IP ([…], time 7 day): 6.7 mg/dL | K ([…], time 7 day): 3.8 meq/L | LDH ([…], time 7 day): 205.8 IU/L | Na ([…], time 7 day): 140.8 meq/L | PL ([…], time 7 day): 143.4 mg/dL | RALB ([…], time 7 day): 3.3 g/dL | TBIL ([…], time 7 day): 0.1 mg/dL | TC ([…], time 7 day): 73.8 mg/dL | TG ([…], time 7 day): 75.6 mg/dL | TP ([…], time 7 day): 5.5 g/dL | gamma-GTP ([…], time 7 day): 0.8 IU/L | A/G ([…], time 14 day): 1.4 | ALP ([…], time 14 day): 736 IU/L | ALT ([…], time 14 day): 33.8 IU/L | AST ([…], time 14 day): 59.6 IU/L | BUN ([…], time 14 day): 15.8 mg/dL | CRE ([…], time 14 day): 0.4 mg/dL | Ca ([…], time 14 day): 10.7 mg/dL | Cl ([…], time 14 day): 100.8 meq/L | DBIL ([…], time 14 day): 0.076 mg/dL | GLC ([…], time 14 day): 232.4 mg/dL | IP ([…], time 14 day): 6.6 mg/dL | K ([…], time 14 day): 3.5 meq/L | LDH ([…], time 14 day): 211.4 IU/L | Na ([…], time 14 day): 139.8 meq/L | PL ([…], time 14 day): 148.8 mg/dL | RALB ([…], time 14 day): 3.3 g/dL | TBIL ([…], time 14 day): 0.1 mg/dL | TC ([…], time 14 day): 74 mg/dL | TG ([…], time 14 day): 110.4 mg/dL | TP ([…], time 14 day): 5.7 g/dL | gamma-GTP ([…], time 14 day): 1 IU/L | A/G ([…], time 28 day): 1.4 | ALP ([…], time 28 day): 568 IU/L | ALT ([…], time 28 day): 33.6 IU/L | AST ([…], time 28 day): 60.2 IU/L | BUN ([…], time 28 day): 15.6 mg/dL | CRE ([…], time 28 day): 0.5 mg/dL | Ca ([…], time 28 day): 10.7 mg/dL | Cl ([…], time 28 day): 102.6 meq/L | DBIL ([…], time 28 day): 0.084 mg/dL | GLC ([…], time 28 day): 221 mg/dL | IP ([…], time 28 day): 6 mg/dL | K ([…], time 28 day): 3.6 meq/L | LDH ([…], time 28 day): 205.2 IU/L | Na ([…], time 28 day): 140.6 meq/L | PL ([…], time 28 day): 142.4 mg/dL | RALB ([…], time 28 day): 3.6 g/dL | TBIL ([…], time 28 day): 0.1 mg/dL | TC ([…], time 28 day): 70.8 mg/dL | TG ([…], time 28 day): 104.6 mg/dL | TP ([…], time 28 day): 6.2 g/dL | gamma-GTP ([…], time 28 day): 1 IU/L
